From patent US20240148821A1, “PHARMACEUTICAL USE OF CYCLIC PEPTIDE COMPOUND” (CHUGAI SEIYAKU KABUSHIKI KAISHA, priority 2021, published 2024)
Numbered stars: 1 amine (or outer) side, 2 acyl side, 3 side chain; on linkers, the order of the positions; unused ones are H or OH. Bridge positions count the residues as written; N and C are the ends. Square brackets hold non-standard residues; d marks the D form. Peptide text beside a SMILES is read from it. * marks the point of attachment. hPhe(3-Cl-4-CF3) = N[C@@H](CCc1ccc(C(F)(F)F)c(Cl)c1)C(=O)O; hPhe(3-F,4-CF3) = N[C@@H](CCc1ccc(C(F)(F)F)c(F)c1)C(=O)O; hPhe(4-CF3) = N[C@@H](CCc1ccc(C(F)(F)F)cc1)C(=O)O; Pro(cis-4-Ph) = O=C(O)[C@@H]1C[C@H](c2ccccc2)CN1; 3Oxa8azabicyclo(3.2.1)octane = C1CC2COCC1N2*; NMePhe(4-Cl) = CN[C@@H](Cc1ccc(Cl)cc1)C(=O)O; NMePhe(4-Me) = CN[C@@H](Cc1ccc(C)cc1)C(=O)O; NMePhe(4-I) = CN[C@@H](Cc1ccc(I)cc1)C(=O)O; X83 = Cc1ccc(CC[C@H](N[*:1])C(=O)[*:2])cc1; NMedβ3hAla = C[C@H](CC(=O)[*:2])N(C)[*:1]; NMeGly(cPent) = CN[C@H](C(=O)O)C1CCCC1; X67 = O=C([C@@H]1CCC[C@H]1N[*:1])[*:2]; NMe3Pal = CN[C@@H](Cc1cccnc1)C(=O)O; NMeGly(cBu) = CN[C@H](C(=O)O)C1CCC1; Gly(cPent) = N[C@H](C(=O)O)C1CCCC1; NMeCha = CN[C@@H](CC1CCCCC1)C(=O)O; NMeChg = CN[C@H](C(=O)O)C1CCCCC1; NMeF = CN[C@@H](Cc1ccccc1)C(=O)O; NMeI = CC[C@H](C)[C@H](NC)C(=O)O; d(β3hL) = CC(C)C[C@@H](N)CC(=O)O; NMeD = CN[C@@H](CC(=O)O)C(=O)O; NMeHpra = C#CCC[C@H](NC)C(=O)O; NMeL = CN[C@@H](CC(C)C)C(=O)O; NEtAla = CCN[C@@H](C)C(=O)O; NMeNva = CCC[C@H](NC)C(=O)O; NMeV = CN[C@H](C(=O)O)C(C)C; d(β3hA) = C[C@@H](N)CC(=O)O; NMeA = CN[C@@H](C)C(=O)O; Piperidide = C1CCN(*)CC1; Ac5c = NC1(C(=O)O)CCCC1; Aze = O=C(O)[C@@H]1CCN1; Sar = CNCC(=O)O

Target: protein-protein interaction between Kras and SOS1 (biotin-tagged human Kras loaded with GDP, His-tagged human SOS1) (Homo sapiens (Human), UniProt P01116, G12D)
Experiment: Protein-protein interaction inhibition between Kras and SOS1 (KrasG12D-SOS PPI) using AlphaScreen;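 further: kras produced in E. coli, Ni-coupled donor beads and streptavidin acceptor beads, excitation 680 nm with emission detected at 520–620 nm via singlet oxygen transfer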
Type: biochemical
Conditions: AlphaScreen; biotin-tagged human Kras loaded with GDP, His-tagged human SOS1; read-out: KRAS G12D-SOS PPI IC50

SMILES | IC50
CC[C@H](C)[C@@H]1NC(=O)[C@H](CC(C)C)N(C)C(=O)C[C@@H](C)NC(=O)[C@H](C(C)C)N(C)C(=O)C2(CCCC2)NC(=O)[C@@H]2CCCN2C(=O)[C@H](CCc2ccc(C(F)(F)F)c(F)c2)NC(=O)CN(C)C(=O)[C@H](CC2CCCCC2)N(C)C(=O)[C@@H]2CCN2C(=O)[C@H](C)N(C)C1=O [Compound 952] (cyclo([Ac5c][NMeV][d(β3hA)][NMeL]I[NMeA][Aze][NMeCha][Sar][hPhe(3-F,4-CF3)]P)) | 120 nM
CC[C@H](C)[C@@H]1NC(=O)[C@H](C2CCC2)N(C)C(=O)C[C@@H](C(=O)N2CCCCC2)N(C)C(=O)[C@H]([C@@H](C)CC)N(C)C(=O)C2(CCCC2)NC(=O)[C@@H]2CCCN2C(=O)[C@H](CCc2ccc(C(F)(F)F)c(Cl)c2)NC(=O)CN(C)C(=O)[C@H](CC2CCCCC2)N(C)C(=O)[C@@H]2CCN2C(=O)[C@H](C)N(C)C1=O [Compound 959] ([NMeGly(cBu)]I[NMeA][Aze][NMeCha][Sar][hPhe(3-Cl-4-CF3)]P[Ac5c][NMeI][NMeD]-Piperidide; lactam N-11) | 1.4 nM
CC[C@H](C)[C@@H]1NC(=O)[C@H](CC(C)C)N(C)C(=O)C[C@@H](C(=O)N2CCCCC2)N(C)C(=O)[C@H](C2CCCCC2)N(C)C(=O)C2(CCCC2)NC(=O)[C@@H]2C[C@H](c3ccccc3)CN2C(=O)[C@H](CCc2ccc(C(F)(F)F)c(Cl)c2)NC(=O)CN(C)C(=O)[C@H](CC2CCCCC2)N(C)C(=O)[C@@H]2CCN2C(=O)CN(C)C1=O [Compound 960] ([NMeL]I[Sar][Aze][NMeCha][Sar][hPhe(3-Cl-4-CF3)][Pro(cis-4-Ph)][Ac5c][NMeChg][NMeD]-Piperidide; lactam N-11) | 7.9 nM
C#CCC[C@H]1C(=O)N[C@@H]([C@@H](C)CC)C(=O)N(C)[C@@H](C)C(=O)N2CC[C@H]2C(=O)N(C)[C@@H](Cc2ccc(I)cc2)C(=O)N(C)CC(=O)N[C@@H](CCc2ccc(C(F)(F)F)c(Cl)c2)C(=O)N2CCC[C@H]2C(=O)NC2(CCCC2)C(=O)N(C)[C@@H](C2CCCCC2)C(=O)N(C)[C@H](C)CC(=O)N1C [Compound 961] (cyclo([Ac5c][NMeChg][NMedβ3hAla][NMeHpra]I[NMeA][Aze][NMePhe(4-I)][Sar][hPhe(3-Cl-4-CF3)]P)) | 12 nM
CC(C)C[C@H]1C(=O)N[C@@H](C2CCCC2)C(=O)N(C)[C@@H](C)C(=O)N2CC[C@H]2C(=O)N(C)[C@@H](CC2CCCCC2)C(=O)N(C)CC(=O)N[C@@H](CCc2ccc(C(F)(F)F)c(Cl)c2)C(=O)N2CCC[C@H]2C(=O)NC2(CCCC2)C(=O)N(C)[C@@H](C(C)C)C(=O)N[C@H](C)CC(=O)N1C [Compound 966] (cyclo([Ac5c][NMeV][d(β3hA)][NMeL][Gly(cPent)][NMeA][Aze][NMeCha][Sar][hPhe(3-Cl-4-CF3)]P)) | 110 nM
C#CCC[C@H]1C(=O)N[C@@H]([C@@H](C)CC)C(=O)N(C)[C@@H](C)C(=O)N2CC[C@H]2C(=O)N(C)[C@@H](Cc2ccc(I)cc2)C(=O)N(C)CC(=O)N[C@@H](CCc2ccc(C(F)(F)F)c(Cl)c2)C(=O)N2CCC[C@H]2C(=O)NC2(CCCC2)C(=O)N(C)[C@@H](C2CCCCC2)C(=O)N[C@H](C)CC(=O)N1C [Compound 971] (cyclo([Ac5c][NMeChg][d(β3hA)][NMeHpra]I[NMeA][Aze][NMePhe(4-I)][Sar][hPhe(3-Cl-4-CF3)]P)) | 16 nM
CC[C@H](C)[C@@H]1NC(=O)[C@H](C)N(C)C(=O)C[C@@H](CC(C)C)NC(=O)[C@H](C(C)C)N(C)C(=O)[C@H](Cc2ccccc2)N(C)C(=O)[C@H](CC(C)C)N(C)C(=O)[C@H](CCc2ccc(C(F)(F)F)cc2)NC(=O)CN(C)C(=O)[C@H](Cc2ccc(Cl)cc2)N(C)C(=O)CN(C)C(=O)CN(C)C1=O [Compound 972] (cyclo(I[Sar][Sar][NMePhe(4-Cl)][Sar][hPhe(4-CF3)][NMeL][NMeF][NMeV][d(β3hL)][NMeA])) | 330 nM
CC[C@H](C)[C@@H]1NC(=O)[C@H](C)N(C)C(=O)C[C@@H](C(=O)N2CCCCC2)N(C)C(=O)[C@H](C(C)C)N(C)C(=O)C2(CCCC2)NC(=O)[C@@H]2CCCN2C(=O)[C@H](CCc2ccc(C)cc2)NC(=O)CN(C)C(=O)[C@H](CC2CCCCC2)N(C)C(=O)[C@@H]2CCN2C(=O)[C@H](C)N(C)C1=O [Compound 976] ([NMeA]I[NMeA][Aze][NMeCha][Sar][X83]P[Ac5c][NMeV][NMeD]-Piperidide; lactam N-11) | 180 nM
CC[C@H](C)[C@@H]1NC(=O)[C@H](C)N(C)C(=O)C[C@@H](C)NC(=O)[C@H](CC(C)C)N(C)C(=O)[C@H](Cc2ccccc2)N(C)C(=O)[C@H](C)N(C)C(=O)[C@H](CCc2ccc(C(F)(F)F)cc2)NC(=O)CN(C)C(=O)[C@H](Cc2ccc(Cl)cc2)N(C)C(=O)CN(C)C(=O)CN(C)C1=O [Compound 978] (cyclo(I[Sar][Sar][NMePhe(4-Cl)][Sar][hPhe(4-CF3)][NMeA][NMeF][NMeL][d(β3hA)][NMeA])) | 170 nM
CCC[C@H]1C(=O)N(C)[C@H](C(=O)N2CCCCC2)CC(=O)N(C)[C@@H](CC(C)C)C(=O)N[C@@H]([C@@H](C)CC)C(=O)N(C)[C@@H](C)C(=O)N2CC[C@H]2C(=O)N(C)[C@@H](CC2CCCCC2)C(=O)N(C)CC(=O)N[C@@H](CCc2ccc(C(F)(F)F)c(Cl)c2)C(=O)N2CCC[C@H]2C(=O)NC2(CCCC2)C(=O)N1C [Compound 995] ([NMeL]I[NMeA][Aze][NMeCha][Sar][hPhe(3-Cl-4-CF3)]P[Ac5c][NMeNva][NMeD]-Piperidide; lactam N-11) | 5.7 nM
CC[C@H](C)[C@@H]1NC(=O)[C@H](C(C)C)N(C)C(=O)[C@@H]2CCC[C@H]2NC(=O)[C@H](CC(C)C)N(C)C(=O)C2(CCCC2)NC(=O)[C@H](CC(C)C)N(C)C(=O)[C@H](CCc2ccc(C(F)(F)F)cc2)NC(=O)CN(C)C(=O)[C@H](Cc2ccc(Cl)cc2)N(C)C(=O)CN(C)C(=O)CN(C)C1=O [Compound 996] (cyclo([Ac5c][NMeL][X67][NMeV]I[Sar][Sar][NMePhe(4-Cl)][Sar][hPhe(4-CF3)][NMeL])) | 90 nM
CC[C@H](C)[C@@H]1NC(=O)[C@H](CC(C)C)N(C)C(=O)C[C@@H](C(=O)N2C3CCC2COC3)N(C)C(=O)[C@H]([C@@H](C)CC)N(C)C(=O)C2(CCCC2)NC(=O)[C@@H]2CCCN2C(=O)[C@H](CCc2ccc(C(F)(F)F)c(Cl)c2)NC(=O)CN(C)C(=O)[C@H](C2CCCC2)N(C)C(=O)[C@@H]2CCN2C(=O)[C@H](C)N(C)C1=O [Compound 1002] ([NMeL]I[NMeA][Aze][NMeGly(cPent)][Sar][hPhe(3-Cl-4-CF3)]P[Ac5c][NMeI][NMeD]-{3Oxa8azabicyclo(3.2.1)octane}; lactam N-11) | 2.1 nM
CCC[C@H]1C(=O)NC2(CCCC2)C(=O)N(C)[C@@H](C2CCCCC2)C(=O)N(C)[C@H](C(=O)N2CCCCC2)CC(=O)N(C)[C@@H](CC(C)C)C(=O)N[C@@H]([C@@H](C)CC)C(=O)N(C)CC(=O)N(C)CC(=O)N(C)[C@@H](CC2CCCCC2)C(=O)N(C)CC(=O)N[C@@H](CCc2ccc(C(F)(F)F)c(Cl)c2)C(=O)N1C [Compound 1005] ([NMeL]I[Sar][Sar][NMeCha][Sar][hPhe(3-Cl-4-CF3)][NMeNva][Ac5c][NMeChg][NMeD]-Piperidide; lactam N-11) | 3.5 nM
CC[C@H](C)[C@@H]1NC(=O)[C@H](CC(C)C)N(C)C(=O)C[C@@H](C(=O)N2CCCCC2)N(C)C(=O)[C@H](C2CCCC2)N(C)C(=O)C2(CCCC2)NC(=O)[C@@H]2CCCN2C(=O)[C@H](CCc2ccc(C(F)(F)F)c(F)c2)NC(=O)CN(C)C(=O)[C@H](Cc2ccc(C)cc2)N(C)C(=O)[C@@H]2CCN2C(=O)[C@H](C)N(C)C1=O [Compound 1008] ([NMeL]I[NMeA][Aze][NMePhe(4-Me)][Sar][hPhe(3-F,4-CF3)]P[Ac5c][NMeGly(cPent)][NMeD]-Piperidide; lactam N-11) | 0.76 nM
CC[C@H](C)[C@@H]1NC(=O)[C@H](C)N(C)C(=O)C[C@@H](C(=O)N2CCCCC2)N(C)C(=O)[C@H](C2CCCCC2)N(C)C(=O)C2(CCCC2)NC(=O)[C@H](Cc2cccnc2)N(C)C(=O)[C@H](CCc2ccc(C(F)(F)F)c(Cl)c2)NC(=O)CN(C)C(=O)[C@H](CC2CCCCC2)N(C)C(=O)CN(C)C(=O)CN(C)C1=O [Compound 1012] ([NMeA]I[Sar][Sar][NMeCha][Sar][hPhe(3-Cl-4-CF3)][NMe3Pal][Ac5c][NMeChg][NMeD]-Piperidide; lactam N-11) | 1.2 nM
CC[C@H](C)[C@@H]1NC(=O)[C@H](C(C)C)N(C)C(=O)C[C@@H](C)NC(=O)[C@H](CC(C)C)N(C)C(=O)C2(CCCC2)NC(=O)[C@H](CC(C)C)N(C)C(=O)[C@H](CCc2ccc(C(F)(F)F)c(Cl)c2)NC(=O)CN(C)C(=O)[C@H](Cc2ccc(Cl)cc2)N(C)C(=O)CN(C)C(=O)CN(C)C1=O [Compound 1014] (cyclo([Ac5c][NMeL][d(β3hA)][NMeV]I[Sar][Sar][NMePhe(4-Cl)][Sar][hPhe(3-Cl-4-CF3)][NMeL])) | 13 nM
CC[C@H](C)[C@@H]1NC(=O)[C@H](CC(C)C)N(C)C(=O)C[C@@H](C)NC(=O)[C@H](C(C)C)N(C)C(=O)C2(CCCC2)NC(=O)[C@@H]2CCCN2C(=O)[C@H](CCc2ccc(C(F)(F)F)c(Cl)c2)NC(=O)CN(C)C(=O)[C@H](Cc2ccc(Cl)cc2)N(C)C(=O)[C@@H]2CCN2C(=O)[C@H](C)N(C)C1=O [Compound 1018] (cyclo([Ac5c][NMeV][d(β3hA)][NMeL]I[NMeA][Aze][NMePhe(4-Cl)][Sar][hPhe(3-Cl-4-CF3)]P)) | 11 nM
CC[C@H](C)[C@@H]1NC(=O)[C@H](CC(C)C)N(C)C(=O)C[C@@H](C)NC(=O)[C@H](C2CCCC2)N(C)C(=O)C2(CCCC2)NC(=O)[C@@H]2CCCN2C(=O)[C@H](CCc2ccc(C(F)(F)F)c(Cl)c2)NC(=O)CN(C)C(=O)[C@H](Cc2ccc(C)cc2)N(C)C(=O)[C@@H]2CCN2C(=O)[C@H](C)N(CC)C1=O [Compound 1023] (cyclo([Ac5c][NMeGly(cPent)][d(β3hA)][NMeL]I[NEtAla][Aze][NMePhe(4-Me)][Sar][hPhe(3-Cl-4-CF3)]P)) | 20 nM
